Tested on: Theobroma cacao L. CCN-10 clones, primary somatic embryo epicotyl/cotyledon explants
Experiment: Direct secondary somatic embryogenesis from primary somatic embryo explants (hormone balance and stressor test)
Type: cell-based
Description: For the production of secondary embryos, epicotyls are taken from primary somatic embryos with size 1 cm and 40 mg of weight and they were cut in 10-15 pieces and placed into flask with 25 ml of liquid medium for embryogenic induction (Table 5) with some modifications in the experimental design (Table 7) per 5 weeks (step c). The culture is exposed to a light:dark 16:8 photoperiod, at a temperature of 27±2° C. and photosynthetic active radiation (PAR) or photosynthetic photon flux density (PPFD) of 50-190 μmol/m^2 per second. After this period, the somatic embryos in globular stage are transferred into the Petri dish in semi-solid developing media (Table 6) with some modifications (Table 8), with a 21-day culture period in light conditions until the embryos express and develop to the heart or early torpedo stage. Afterward, the cultures were transferred into the Petri dish in the same medium, but without gibberellic acid and with the same culture conditions but in the dark with transferences every 14 days for embryo's maturation. A variety of media were tested to assess the concentrations of plant hormones and stressors to be used in direct secondary somatic embryogenesis, as set forth in the following tables: [table] [table] Cotyledon explants were collected 40 days after induction and were used for study. Samples were fixed with FAA [10% formalin, 5% acetic acid, 50% ethanol (v/v)] per 8 days. The sample must be previously cut into approximately 0.5 to 1.0 mm. Do three (3) washes of 5 minutes each with distilled water or buffer to remove the fixative. […] the material in increasing concentrations of ethanol for at least 1 h of 70%, 85% and 95% at room temperature (incubation time varies with the kind of the material). Since the experiments were established, evaluations have been performed every 14 days, and some dependent variables like: number of calluses formed, number of normal embryos without callus formation, number of abnormal embryos without callus formation, number of pro-embryogenic masses, number of torpedo embryos, number of heart embryos, number of globular embryos, and overall observations. The Dino-Lite digital microscope premier, AM4113/AD4113 series was used for the observations. The experiment was a sequence of mediums where the first was induction medium (Table 7) followed by combination with develop medium (Table 8). The factorial analysis was 5×2, in view of the testing of 2 sucrose concentrations (40 and 80 g/l) and 5 gibberellic acid concentrations (0.0, 0.2, 0.4, 0.6 and 1.0 mg/l), using a completely randomized design.

SMILES	quantity of abnormal embryos (1 mg/l gibberellic acid and 40 g/l sucrose in development medium, compared with the other treatments (FIG. 4))	expression of direct somatic embryos (number of embryos produced) (different concentrations of gibberellic acid in combination with 40 g/L or 80 g/L sucrose (FIG. 4))	normal embryos (sequence of media: induction 1.0 mg/l BAP + 40 g/l sucrose, light, 40 days, then 0.6 mg/l gibberellic acid + 40 g/l sucrose, light, 21 days, then same medium without gibberellic acid, darkness) [%]	direct somatic embryos developed by embryonic regions of cotyledon explants (histological analysis) (induction medium with 1.0 mg/L BAP and 40 g/L sucrose, 40 days of culture (FIG. 5))
C=C1C[C@]23C[C@@]1(O)CC[C@H]2[C@@]12C=C[C@H](O)[C@@](C)(C(=O)O1)[C@H]2[C@@H]3C(=O)O [gibberellic acid]	highest quantity of abnormal embryos	influenced the expression of direct somatic embryos	83.3	
c1ccc(CNc2ncnc3nc[nH]c23)cc1 [BAP, 6-benzylaminopurine]				large numbers of direct somatic embryos in globular and heart stage
